# Test results: PMC11965388 (Nature Communications, 2025)
# Key:
# pain = settings: mice; cited from earlier work
# [1] = molecular target: T1, α6β4^L121F (human α6β4 nAChR, L121F in β4) (Homo sapiens, UniProt P30926+Q15825, L142F); assay: cell-based
# [2] = molecular target: T1, α6β4^L121F (human α6β4 nAChR, L121F in β4); settings: L121F vs WT, two-electrode voltage clamp
# [3] = molecular target: human α6β4 nAChR (α6β4^WT) (Homo sapiens, UniProt P30926+Q15825); assay: Two-electrode voltage clamp in Xenopus oocytes, wild-type α6β4; assay type: cell-based; settings: times higher affinity than nicotine
# neuropathic pain = settings: cited from earlier work
# T1 sequence (Q15825 31-494 limits assumed): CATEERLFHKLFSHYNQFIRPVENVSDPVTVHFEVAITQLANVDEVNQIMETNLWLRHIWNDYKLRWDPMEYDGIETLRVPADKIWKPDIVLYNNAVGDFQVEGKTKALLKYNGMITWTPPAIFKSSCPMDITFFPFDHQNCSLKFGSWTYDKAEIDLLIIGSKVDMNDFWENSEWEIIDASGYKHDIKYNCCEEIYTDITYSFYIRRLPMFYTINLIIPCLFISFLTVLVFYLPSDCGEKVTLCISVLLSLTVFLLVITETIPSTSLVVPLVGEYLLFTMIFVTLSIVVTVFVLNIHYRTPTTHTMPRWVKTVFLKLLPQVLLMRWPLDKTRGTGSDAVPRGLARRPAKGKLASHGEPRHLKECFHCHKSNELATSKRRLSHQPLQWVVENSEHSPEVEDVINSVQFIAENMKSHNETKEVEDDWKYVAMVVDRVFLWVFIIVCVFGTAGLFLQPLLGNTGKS
# T1 sequence (P30926 22-498 L142F): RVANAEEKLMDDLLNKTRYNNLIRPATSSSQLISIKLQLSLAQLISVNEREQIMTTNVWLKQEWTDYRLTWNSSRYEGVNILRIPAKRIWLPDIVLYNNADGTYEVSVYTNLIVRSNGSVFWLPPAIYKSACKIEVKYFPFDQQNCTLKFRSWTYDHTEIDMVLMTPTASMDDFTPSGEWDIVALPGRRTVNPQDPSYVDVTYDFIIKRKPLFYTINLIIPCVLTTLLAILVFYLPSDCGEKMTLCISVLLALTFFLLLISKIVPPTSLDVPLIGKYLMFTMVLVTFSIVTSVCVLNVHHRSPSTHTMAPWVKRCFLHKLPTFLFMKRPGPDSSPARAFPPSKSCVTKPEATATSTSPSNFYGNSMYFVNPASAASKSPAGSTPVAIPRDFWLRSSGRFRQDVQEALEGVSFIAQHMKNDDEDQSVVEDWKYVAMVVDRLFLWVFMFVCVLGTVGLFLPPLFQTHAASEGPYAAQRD
# Sequence of human α6β4 nAChR (α6β4^WT) (Q15825 31-494 limits assumed): as the sequence (Q15825 31-494 limits assumed) above
# Sequence of human α6β4 nAChR (α6β4^WT) (P30926 22-498): as the sequence (P30926 22-498 L142F) above, with F121L counted along it
Compound,analgesic effect (pain),EC50 [1] [µM],increase of binding affinity of α6β4 for nicotine by L121F mutation in β4 [2],affinity for α6β4 relative to nicotine [3],analgesic activity against neuropathic pain (neuropathic pain)
CN1CCC[C@H]1c1cccnc1 [nicotine],effective analgesics,2.2 ± 0.4,approximately 10 fold,–,–
"Clc1ccc(OC[C@H]2CCN2)cn1 [tebanicline, (R)-5-(2-azetidinylmethoxy)-2-chloropyridine]",effective analgesics,–,–,approximately 50 times,potent analgesic activity
